From patent US20130108573A1, “Bile Acid Recycling Inhibitors for Treatment of Hypercholemia and Cholestatic Liver Disease” (Lumena Pharmaceuticals, Inc., priority 2011, published 2013) come the findings set out here.

The subject of test [1] is Fecal Bile Acid Excretion and Plasma Bile Acid Concentrations. Briefly: ZDF rat study of 264W94: fecal bile acid excretion and plasma bile acid concentrations. It is filed as in vivo, Zucker diabetic fatty rats. The following applies: male ZDF rats, 2 weeks. How it is done:
Male Zucker diabetic fatty rats (ZDF/GmiCrl-fa/fa) were purchased from Charles River (Raleigh, N.C.) and housed under controlled conditions (12:12 light-dark cycle, 24° C. and 50% relative humidity) with free access to rodent food (Purina 5008, Harlan Teklad, Indianapolis, Ind.). All rats arrived at seven weeks of age (±3 days). After a one-week acclimation period, rats were anesthetized with isoflurane (Abbott Laboratories, IL) and tail-vein blood samples were collected at 9 am without fasting. Blood glucose levels were measured using a glucometer (Bayer, Leverkusen, Germany). In order to ensure balanced treatment groups, ZDF rats were assigned to six treatment groups based upon baseline glucose: vehicle (0.5% HPMC, 0.1% Tween80) and five doses of 264W94 (0.001, 0.01, 0.1, 1, 10 mg/kg). All treatments were given via oral gavage twice a day and animals were followed for two weeks with blood samples collected from tail vein at the end of each week at 9 am without fasting. Fecal samples were collected for 24 hours during the second week of treatment.
Non-esterified fatty acids (NEFA), bile acids, and bile acids in fecal extraction were measured using the Olympus AU640 clinical chemistry analyzer (Beckman Coulter, Irving, Tex.).

The next test concerns Plasma Bile Acid Levels. Kind of test: Plasma bile acid levels of ZDF rats after ascending doses of SC-435 and LUM002. It counts as in vivo. The following applies: male ZDF rats n=4, end of second week. As for the experimental part:
FIG. 2. Plasma bile acid levels of ZDF rats after administration of ascending doses of SC-435 and LUM002. Male ZDF rats (n=4) were administered vehicle, SC-435 (1, 10 or 30 mg/kg) or LUM002 (0.3, 1, 3, 10 or 30 mg/kg) by oral gavage twice a day for 2 weeks. Plasma bile acid levels were determined at the end of the second week. Data are expressed as mean values ±SEM.
Male ZDF rats (n=4) were administered vehicle, SC-435 (1, 10 or 30 mg/kg) or LUM002 (0.3, 1, 3, 10 or 30 mg/kg) by oral gavage twice a day for 2 weeks. Plasma bile acid levels were determined at the end of the second week. […] Data are expressed as mean values ±SEM.

The mark [2] stands for this setting: 264W94 0.001-10 mg/kg oral gavage twice a day.

As to `CCCC[C@]1(CC)CS(=O)(=O)c2cc(OC)c(OC)cc2[C@@H](c2ccccc2)N1` [Compound 264W94], in test [1] (setting [2]), the “Fecal NEFA” value is “slightly increased” and the “Plasma bile acid concentrations” value is listed as “decreased dose-dependently”. The “Fecal bile acid concentrations elevated compared to vehicle treated rats” value in test [1] (264W94 0.001-10 mg/kg oral gavage twice a day, 24 h feces in second week) was “up to 6.5 fold”. Also, in test [1] (oral administration of 264W94 0.001-10 mg/kg twice a day), the “Bile acids in the feces” value is given as “dose-dependently increased”. Moreover, in test [1] (oral gavage twice a day), the “ED50 of fecal bile acid elevation” value was determined as 0.17 mg/kg.

With `CCCC[C@]1(CC)CS(=O)(=O)c2ccc(N(C)C)cc2[C@@H](c2cccc(NC(=O)N[C@@H]3O[C@H](COS(=O)(=O)[O-])[C@@H](O)[C@H](OCc4ccccc4)[C@H]3O)c2)[C@H]1O.[K+]` [LUM002], the “Plasma bile acid levels” value with Plasma Bile Acid Levels (LUM002 0.3, 1, 3, 10 or 30 mg/kg oral gavage twice a day for 2 weeks) is given as “decreased for all doses”.

For the molecule `CCCCC1(CCCC)CS(=O)(=O)c2ccc(N(C)C)cc2[C@@H](c2ccc(OCCCC[N+]34CCN(CC3)CC4)cc2)[C@H]1O.CS(=O)(=O)[O-]` [SC-435, 1-[4-[4-[(4R,5R)-3,3-dibutyl-7-(dimethylamino)-2,3,4,5-tetrahydro-4-hydroxy-1,1-dioxido-1-benzothiepin-5-yl]phenoxy]butyl]-4-aza-1-azoniabicyclo[2.2.2]octane methanesulfonate salt, reference compound], the “Plasma bile acid levels” value with Plasma Bile Acid Levels (SC-435 1, 10 or 30 mg/kg oral gavage twice a day for 2 weeks) was “decreased for all doses”.
